Where two headings read alike, the source gives them in different places.
Assays:
[1] = system: Staphylococcus aureus; experiment: Microbicidal activity of the myeloperoxidase system (p-MPO, glucose oxidase, glucose) with amino acids in the presence of blood, CFU plate counts; synergy determination from these CFU; type: cell-based; settings: for Average Viability CFU/ml 50 min / Log Reduction 50 min: MPO 4.7 U/ml, GO 4.2 U/ml
Experimental: Bacterial suspensions, specifically Staphylococcus aureus in this example, were prepared by the shake flask method to achieve late log to early stationary phase growth. Bacteria were grown 24 hours in trypticase soy broth (TSB) at 35° C. The cultures were centrifuged at 4,000 rpm for 10 minutes and the supernatants removed. The pellet was collected and washed twice with sterile 0.9% normal saline (NS). The washed microorganisms were suspended and diluted with normal saline to a 3 McFarland standard, i.e., approximately 10^9 bacteria colony forming units (CFU) per mL. Actual colony counts are confirmed by serial dilutions (10^−1 to 10^−5 or 10^−6) plated on TSA and incubated overnight at 35° C. To obtain an approximate final working target inoculum of 10^7 CFU/mL, 15 microliters of organisms per mL of final reaction mixture are used.
Glucose oxidase (GO) from Aspergillus Niger was purchased from Biozyme, Inc., UK, Cat #GO3A, 270 U/mg). Porcine Myeloperoxidase (p-MPO) (Exoxemis, Inc., Little Rock, Ark. U.S.A., 375 U/mg). Sterile stock solutions of D-glucose and sodium chloride were prepared and used at a final concentration of 150 mM each. L-Lysine hydrochloride (Spectrum Chemical Cat #L1142) was prepared as a 100 mM stock solution. Catalase (Sigma, Cat #C-40) was prepared as a 1% stock solution in sterile 0.9% normal saline. Blood was collected by venipuncture and used as whole blood within the same day.
Staphylococcus aureus were used to give a final target concentration of 2-3×10^7 CFU (7.4 log 10) per mL and venous whole blood was used to give a final concentration of 3%. Glucose was added to the reaction mixtures to a final concentration of 150 mM, which initiated the microbicidal reaction. The final volume of the reaction mixtures was 1 mL. The reactions were allowed to run from 30 minutes to 2 hours, as needed, at room temperature or at 37° C. in a dry bath. At the specified time points the reaction mixtures were treated with 100 microliters of a catalase solution, containing a minimum of 100 units/μL, to consume remaining peroxide and terminate the oxidative killing. Serial dilution plate counts were performed from the contents of each vial in sterile saline and inoculated onto trypticase soy agar (TSA) for quantitative culture. Plates were then incubated at 37° C. and counts taken at 24 hours. […] The results are shown in Table 1, as the average of 2 replicates.
The amino acids alone, in the absence of MPO were tested to rule out their microbicidal activity. The results are shown in Table 2 to Table 6, as the average of 2 replicates.
The amino acid analogues alone, in the absence of MPO, were tested to rule out their microbicidal activity. […]
The effect of two-way combinations of individual amino acids with L-isoleucine, as potential enhancing agents, for MPO microbicidal action in the presence of blood, was therefore examined by following the procedure of Example 5.
The Actual CFU observed for the pair is then divided by the Predicted CFU and multiplied by 100 to calculate the % of Predicted value. This value is then to be compared to the threshold value, discussed in the next section, to determine whether the pair are synergistic, antagonistic, or additive.
Calculation of appropriate threshold values for determination of synergism and antagonism was based upon the variability of replicated CFU survivor measures.

[2] = system: Staphylococcus aureus; experiment: Control: microbicidal activity of the amino acid or analogue alone (no glucose, MPO, glucose oxidase) in the presence of blood; type: cell-based; settings: for log reduction at 5000 µM: Staphylococcus aureus, 1 h, read-out: Log Reduction 60 min
Source text: As a control to determine the microbicidal activity of the amino acids alone, the foregoing procedure was followed without replication, except in the absence of glucose, MPO, and glucose oxidase.

[3] = MPO 100 μg/mL, AA 20 mM, 30 min
[4] = MPO 100 μg/mL, AA 20 mM, 60 min
[5] = Table 4, amino acid 5 mM (none: 0 mM), MPO 38 U/ml, GO 33.3 U/ml, blood
[6] = Table 11, single amino acid 2.5 mM, in the presence of blood, 50 min
[7] = amino acid alone 5 mM, MPO 0, GO 0, no glucose, blood, without replication
[8] = Table 5, amino acid 5 mM (none: 0 mM), MPO 38 U/ml, GO 33.3 U/ml, blood
[9] = Table 19, amino acid (racemic, L- or D-form) 2.5 mM, 50 min
[10] = single amino acid 2.5 mM, blood
[11] = L-lysine 5 mM, MPO 9 U/ml, GO 0.833 U/ml, 3% blood
[12] = L-lysine 5 mM, MPO 9 U/ml, GO 8.33 U/ml, 3% blood
[13] = L-lysine 5 mM, MPO 38 U/ml, GO 3.3 U/ml, 3% blood
[14] = L-lysine 5 mM, MPO 38 U/ml, GO 33.3 U/ml, 3% blood
[15] = L-lysine 20 mM, MPO 38 U/ml, GO 3.3 U/ml, 3% blood
[16] = L-lysine 20 mM, MPO 38 U/ml, GO 33.3 U/ml, 3% blood
[17] = L-lysine […], MPO 9 U/ml, GO 0.833 U/ml, 3% blood
[18] = L-lysine […], MPO 9 U/ml, GO 8.33 U/ml, 3% blood
[19] = Table 2, amino acid 5 mM (none: 0 mM), MPO 38 U/ml, GO 33.3 U/ml, blood
[20] = Table 10, single amino acid 2.5 mM, in the presence of blood, 50 min
[21] = Table 13, single amino acid 2.5 mM, in the presence of blood, 50 min
[22] = Table 14, single amino acid 2.5 mM, in the presence of blood, 50 min
[23] = Table 7, amino acid analogue 5 mM, MPO 38 U/ml, GO 33.3 U/ml, blood

With `O=C(O)[C@H]1CCCN1` [D-Proline] the “Log 10 (CFU + 1) Survivors” value ([1]; MPO 25 μg/mL, AA 5 mM, 30 min) was 6.9, the “Log 10 (CFU + 1) Survivors” value ([1]; MPO 25 μg/mL, AA 5 mM, 60 min) was 2.4 and the “Log 10 (CFU + 1) Survivors” value ([1]; MPO 25 μg/mL, AA […], 30 min) was 7.3. For the same compound, the “Log 10 (CFU + 1) Survivors” value ([1]; MPO 25 μg/mL, AA […], 60 min) was 3.7, the “Log 10 (CFU + 1) Survivors” value ([1]; MPO 100 μg/mL, AA 5 mM, 30 min) was 5.7 and the “Log 10 (CFU + 1) Survivors” value ([1]; MPO 100 μg/mL, AA 5 mM, 60 min) was 2.7. The “Log 10 (CFU + 1) Survivors” value [1, 3] was 4.8, the “Log 10 (CFU + 1) Survivors” value [1, 4] was 0.0 and the “Average Viability CFU/ml 60 min” value [1, 5] was 830 CFU/ml. The “Log Reduction 60 min” value [1, 5] was 4.5, the “Average Viability CFU/ml 50 min” value [1, 6] was 1890000 CFU/ml and the “Log Reduction 50 min” value [1, 6] was 1.2. The log reduction at 5000 µM [2, 7] was 0.1 and the “Average Viability CFU/ml 60 min” value [2, 7] was 21400000 CFU/ml.

With `CC[C@@H](C)[C@@H](N)C(=O)O` [D-Isoleucine] the “Log 10 (CFU + 1) Survivors” value ([1]; MPO 25 μg/mL, AA 5 mM, 30 min) was 0.0, the “Log 10 (CFU + 1) Survivors” value ([1]; MPO 25 μg/mL, AA 5 mM, 60 min) was 0.0 and the “Log 10 (CFU + 1) Survivors” value ([1]; MPO 25 μg/mL, AA […], 30 min) was 6.0. The “Log 10 (CFU + 1) Survivors” value ([1]; MPO 25 μg/mL, AA […], 60 min) was 1.1, the “Log 10 (CFU + 1) Survivors” value ([1]; MPO 100 μg/mL, AA 5 mM, 30 min) was 0.0 and the “Log 10 (CFU + 1) Survivors” value ([1]; MPO 100 μg/mL, AA 5 mM, 60 min) was 0.0. For the same compound, the “Log 10 (CFU + 1) Survivors” value [1, 3] was 0.0, the “Log 10 (CFU + 1) Survivors” value [1, 4] was 0.0 and the “Average Viability CFU/ml 60 min” value [1, 8] was 0 CFU/ml. For the same compound, the “Log Reduction 60 min” value [1, 8] was 7.4, the “Average Viability CFU/ml 50 min” value [1, 6] was 196000 CFU/ml and the “Log Reduction 50 min” value [1, 6] was 2.1. For the same compound, the “Average Viability CFU/ml 50 min” value [1, 9] was 196000 CFU/ml, the “Log Reduction 50 min” value [1, 9] was 2.1 and the “Average Viability CFU/ml 50 min” value [1, 10] was 196000 CFU/ml. For the same compound, the “Log Reduction 50 min” value [1, 10] was 2.1, the “CFU survivors, amino acid acting separately” value ([1]; standard conditions of Example 5 (2.5 μmol/mL; MPO 4.7 U/mL; GO 4.2 U/mL)) was 196000 CFU and the log reduction at 5000 µM [2, 7] was 0.1. For the same compound, the “Average Viability CFU/ml 60 min” value [2, 7] was 21300000 CFU/ml.

In the case of `N[C@H](CC(=O)O)C(=O)O` [D-Aspartic acid], the “Average Viability CFU/ml 60 min” value [1, 8] is reported as 570000 CFU/ml, the “Log Reduction 60 min” value [1, 8] is reported as 1.6 and the log reduction at 5000 µM [2, 7] is reported as 0.1. For the same compound, the “Average Viability CFU/ml 60 min” value [2, 7] was 20900000 CFU/ml.

For `NCCCC[C@H](N)C(=O)O` [L-Lysine], the “Average Viability CFU/ml 30 min” value [1, 11] was 775000 CFU/ml, the “Average Viability CFU/ml 60 min” value [1, 11] was 53000 CFU/ml and the “Log Reduction 30 min” value [1, 11] was 1.5. For the same compound, the “Log Reduction 60 min” value [1, 11] was 2.7, the “Average Viability CFU/ml 30 min” value [1, 12] was 675000 CFU/ml and the “Average Viability CFU/ml 60 min” value [1, 12] was 47 CFU/ml. The “Log Reduction 30 min” value [1, 12] was 1.6, the “Log Reduction 60 min” value [1, 12] was 5.7 and the “Average Viability CFU/ml 30 min” value [1, 13] was 6050 CFU/ml. For the same compound, the “Average Viability CFU/ml 60 min” value [1, 13] was 770 CFU/ml, the “Log Reduction 30 min” value [1, 13] was 3.6 and the “Log Reduction 60 min” value [1, 13] was 4.5. For the same compound, the “Average Viability CFU/ml 30 min” value [1, 14] was 7 CFU/ml, the “Average Viability CFU/ml 60 min” value [1, 14] was 3 CFU/ml and the “Log Reduction 30 min” value [1, 14] was 6.5. The “Log Reduction 60 min” value [1, 14] was 6.8, the “Average Viability CFU/ml 30 min” value [1, 15] was 6450 CFU/ml and the “Average Viability CFU/ml 60 min” value [1, 15] was 620 CFU/ml. For the same compound, the “Log Reduction 30 min” value [1, 15] was 3.6, the “Log Reduction 60 min” value [1, 15] was 4.6 and the “Average Viability CFU/ml 30 min” value [1, 16] was 5 CFU/ml. The “Average Viability CFU/ml 60 min” value [1, 16] was 5 CFU/ml, the “Log Reduction 30 min” value [1, 16] was 6.6 and the “Log Reduction 60 min” value [1, 16] was 6.6. The “Average Viability CFU/ml 30 min” value [1, 17] was 5050000 CFU/ml, the “Average Viability CFU/ml 60 min” value [1, 17] was 620000 CFU/ml and the “Log Reduction 30 min” value [1, 17] was 0.7. The “Log Reduction 60 min” value [1, 17] was 1.6, the “Average Viability CFU/ml 30 min” value [1, 18] was 6200000 CFU/ml and the “Average Viability CFU/ml 60 min” value [1, 18] was 4950 CFU/ml. The “Log Reduction 30 min” value [1, 18] was 0.6, the “Log Reduction 60 min” value [1, 18] was 3.7 and the “Log 10 (CFU + 1) Survivors” value ([1]; MPO 25 μg/mL, AA 5 mM, 30 min) was 5.8. The “Log 10 (CFU + 1) Survivors” value ([1]; MPO 25 μg/mL, AA 5 mM, 60 min) was 1.6, the “Log 10 (CFU + 1) Survivors” value ([1]; MPO 25 μg/mL, AA […], 30 min) was 6.8 and the “Log 10 (CFU + 1) Survivors” value ([1]; MPO 25 μg/mL, AA […], 60 min) was 3.7. For the same compound, the “Log 10 (CFU + 1) Survivors” value ([1]; MPO 100 μg/mL, AA 5 mM, 30 min) was 0.9, the “Log 10 (CFU + 1) Survivors” value ([1]; MPO 100 μg/mL, AA 5 mM, 60 min) was 0.5 and the “Log 10 (CFU + 1) Survivors” value [1, 3] was 0.8. The “Log 10 (CFU + 1) Survivors” value [1, 4] was 0.8, the “Average Viability CFU/ml 60 min” value [1, 19] was 0 CFU/ml and the “Log 10 (CFU + 1) Survivors 60 min” value [1, 19] was 0.0. The “Log Reduction 60 min” value [1, 19] was 7.4, the “Average Viability CFU/ml 50 min” value [1, 20] was 16200000 CFU/ml and the “Log Reduction 50 min” value [1, 20] was 0.2. For the same compound, the “Average Viability CFU/ml 50 min” value [1, 6] was 18900000 CFU/ml, the “Log Reduction 50 min” value [1, 6] was 0.2 and the “Average Viability CFU/ml 50 min” value [1, 21] was 11400000 CFU/ml. The “Log Reduction 50 min” value [1, 21] was 0.3, the “Average Viability CFU/ml 50 min” value [1, 22] was 16950000 CFU/ml and the “Log Reduction 50 min” value [1, 22] was 0.2. For the same compound, the log reduction at 5000 µM [2] was 0 and the “Average Viability CFU/ml 60 min” value [2, 7] was 21400000 CFU/ml.

For `COC(=O)[C@@H](N)CCCCN.Cl.Cl` [L-Lysine methyl ester dihydrochloride], the “Average Viability CFU/ml 60 min” value [1, 23] was 0 CFU/ml, the “Log Reduction 60 min” value [1, 23] was 7.4 and the log reduction at 5000 µM [2] was 0. For the same compound, the “Average Viability CFU/ml 60 min” value ([2]; amino acid analogue alone 5 mM, MPO 0, GO 0, no glucose, blood) was 21500000 CFU/ml.

— US8945540B2, “Compositions for enhancing the antibacterial activity of myeloperoxidase and methods of use thereof” (Exoxemis, Inc., priority 2008, dated 2015)
